The text below walks through data of publication PMC8550792, “Evolution of kinase polypharmacology across HSP90 drug discovery” (Cell Chemical Biology, 2021).

Assay in all cases: biochemical
What all share (assay type): biochemical

The target in assay [1] is T1, 382 unique human kinases (Homo sapiens, UniProt Q8NEV4).
T1 construct: purchased Reaction Biology (HotSpot contract assay)
The conditions noted are these: MYO3A, 10 uM; for remaining activity at 10 µM: read-out: % Enzyme Activity (relative to DMSO controls).

The target of assay [2] is T2, 382 unique human kinases (Homo sapiens, UniProt P51617).
T2 construct: purchased Reaction Biology (HotSpot contract assay)
Particulars: kinase IRAK1, compound 10 uM; for remaining activity at 10 µM: read-out: % Enzyme Activity (relative to DMSO controls).

Assay [3] addresses T3, 382 unique human kinases (Homo sapiens, UniProt Q02763, Y897C).
T3 construct: purchased Reaction Biology (HotSpot contract assay)
Particulars: kinase TIE2 (Y897C), compound 10 uM; for remaining activity at 10 µM: read-out: % Enzyme Activity (relative to DMSO controls).

In assay [4] the target is T4, 382 unique human kinases (Homo sapiens, UniProt Q02763, Y1108F).
T4 construct: purchased Reaction Biology (HotSpot contract assay)
The conditions noted are these: kinase TIE2 (Y1108F), compound 10 uM; for remaining activity at 10 µM: read-out: % Enzyme Activity (relative to DMSO controls).

Assay [5] deals with T5, 382 unique human kinases (Homo sapiens, UniProt Q9UPE1).
T5 construct: purchased Reaction Biology (HotSpot contract assay)
The conditions noted are these: MSSK1/STK23, 10 uM; for remaining activity at 10 µM: read-out: % Enzyme Activity (relative to DMSO controls).

Assay [6] has as its target T6, 382 unique human kinases (Homo sapiens, UniProt P22607, K650M).
T6 construct: purchased Reaction Biology (HotSpot contract assay)
The conditions noted are these: FGFR3 (K650M), 10 uM; for remaining activity at 10 µM: read-out: % Enzyme Activity (relative to DMSO controls).

In assay [7] the target is T7, 382 unique human kinases (Homo sapiens, UniProt P09619).
T7 construct: purchased Reaction Biology (HotSpot contract assay)
Particulars: kinase PDGFRb, compound 10 uM; for remaining activity at 10 µM: read-out: % Enzyme Activity (relative to DMSO controls).

In assay [8] the target is T8, 382 unique human kinases (Homo sapiens, UniProt Q9BXA7).
T8 construct: purchased Reaction Biology (HotSpot contract assay)
T8 sequence (Q9BXA7 1-367): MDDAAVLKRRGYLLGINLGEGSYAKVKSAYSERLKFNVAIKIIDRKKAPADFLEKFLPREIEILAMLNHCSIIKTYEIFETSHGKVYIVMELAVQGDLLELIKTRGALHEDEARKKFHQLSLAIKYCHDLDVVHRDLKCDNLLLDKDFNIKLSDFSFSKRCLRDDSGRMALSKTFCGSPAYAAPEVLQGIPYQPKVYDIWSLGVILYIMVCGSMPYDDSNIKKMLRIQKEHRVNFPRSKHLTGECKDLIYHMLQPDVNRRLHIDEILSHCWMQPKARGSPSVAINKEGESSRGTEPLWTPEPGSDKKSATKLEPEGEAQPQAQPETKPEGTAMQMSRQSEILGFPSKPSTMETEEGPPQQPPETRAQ
The conditions noted are these: STK22D/TSSK1, 10 uM; for remaining activity at 10 µM: read-out: % Enzyme Activity (relative to DMSO controls).

Assay [9] deals with T9, 382 unique human kinases (Homo sapiens, UniProt Q9BUB5).
T9 construct: purchased Reaction Biology (HotSpot contract assay)
The conditions noted are these: kinase MNK1, compound 10 uM; for remaining activity at 10 µM: read-out: % Enzyme Activity (relative to DMSO controls).

For assay [10], the target named is T10, 382 unique human kinases (Homo sapiens, UniProt P07949, S904F).
T10 construct: purchased Reaction Biology (HotSpot contract assay)
The conditions noted are these: RET (S904F), 10 uM; for remaining activity at 10 µM: read-out: % Enzyme Activity (relative to DMSO controls).

Assay [11] addresses T11, 382 unique human kinases (Homo sapiens, UniProt P51812, L608F).
T11 construct: purchased Reaction Biology (HotSpot contract assay)
Particulars: RSK2 (L608F), [ATP] 10 µM, compound 10 uM; for remaining activity at 10 µM: read-out: % Enzyme Activity (relative to DMSO controls).

Assay [12] deals with T12, 382 unique human kinases (Homo sapiens, UniProt Q9H792).
T12 construct: purchased Reaction Biology (HotSpot contract assay)
The conditions noted are these: PEAK1, [ATP] 30 µM.

For assay [13], the target named is T13, 382 unique human kinases (Homo sapiens, UniProt O95819).
T13 construct: purchased Reaction Biology (HotSpot contract assay)
Particulars: HGK/MAP4K4, 10 uM; for remaining activity at 10 µM: read-out: % Enzyme Activity (relative to DMSO controls).

Assay [14] has as its target T14, 382 unique human kinases (Homo sapiens, UniProt Q15120).
T14 construct: purchased Reaction Biology (HotSpot contract assay)
Particulars: PDK3/PDHK3, [ATP] 30 µM, compound 10 uM; for remaining activity at 10 µM: read-out: % Enzyme Activity (relative to DMSO controls).

For assay [15], the target named is T15, 382 unique human kinases (Homo sapiens, UniProt P27361).
T15 construct: purchased Reaction Biology (HotSpot contract assay)
The conditions noted are these: ERK1, 10 uM; for remaining activity at 10 µM: read-out: % Enzyme Activity (relative to DMSO controls).

Assay [16] concerns the target T16, 382 unique human kinases (Homo sapiens, UniProt Q9H093).
T16 construct: purchased Reaction Biology (HotSpot contract assay)
T16 sequence (Q9H093 1-628): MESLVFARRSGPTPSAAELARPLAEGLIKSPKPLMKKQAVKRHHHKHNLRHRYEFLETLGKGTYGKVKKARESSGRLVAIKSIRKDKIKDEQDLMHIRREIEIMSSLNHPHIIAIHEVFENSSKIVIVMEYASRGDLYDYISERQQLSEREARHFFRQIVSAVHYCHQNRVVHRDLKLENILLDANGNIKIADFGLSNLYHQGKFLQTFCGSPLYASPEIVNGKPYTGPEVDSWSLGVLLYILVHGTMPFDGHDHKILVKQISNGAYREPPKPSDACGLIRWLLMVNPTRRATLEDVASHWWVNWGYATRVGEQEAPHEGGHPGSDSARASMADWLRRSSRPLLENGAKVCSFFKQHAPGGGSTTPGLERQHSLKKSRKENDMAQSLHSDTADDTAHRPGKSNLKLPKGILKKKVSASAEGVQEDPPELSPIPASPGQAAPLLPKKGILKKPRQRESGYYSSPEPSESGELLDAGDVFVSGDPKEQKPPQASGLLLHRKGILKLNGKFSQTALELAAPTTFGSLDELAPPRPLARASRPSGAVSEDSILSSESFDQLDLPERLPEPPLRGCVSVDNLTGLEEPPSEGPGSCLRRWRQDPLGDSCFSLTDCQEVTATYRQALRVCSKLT
The conditions noted are these: SNARK/NUAK2, 10 uM; for remaining activity at 10 µM: read-out: % Enzyme Activity (relative to DMSO controls).

In assay [17] the target is T17, 382 unique human kinases (Homo sapiens, UniProt P00519, M351T).
T17 construct: purchased Reaction Biology (HotSpot contract assay)
Particulars: ABL1 (M351T), [ATP] 10 µM, compound 10 uM; for remaining activity at 10 µM: read-out: % Enzyme Activity (relative to DMSO controls).

[18] abbreviates: compound 10 uM, read-out: % Enzyme Activity (relative to DMSO controls).

T6 sequence (P22607 23-806 K650M): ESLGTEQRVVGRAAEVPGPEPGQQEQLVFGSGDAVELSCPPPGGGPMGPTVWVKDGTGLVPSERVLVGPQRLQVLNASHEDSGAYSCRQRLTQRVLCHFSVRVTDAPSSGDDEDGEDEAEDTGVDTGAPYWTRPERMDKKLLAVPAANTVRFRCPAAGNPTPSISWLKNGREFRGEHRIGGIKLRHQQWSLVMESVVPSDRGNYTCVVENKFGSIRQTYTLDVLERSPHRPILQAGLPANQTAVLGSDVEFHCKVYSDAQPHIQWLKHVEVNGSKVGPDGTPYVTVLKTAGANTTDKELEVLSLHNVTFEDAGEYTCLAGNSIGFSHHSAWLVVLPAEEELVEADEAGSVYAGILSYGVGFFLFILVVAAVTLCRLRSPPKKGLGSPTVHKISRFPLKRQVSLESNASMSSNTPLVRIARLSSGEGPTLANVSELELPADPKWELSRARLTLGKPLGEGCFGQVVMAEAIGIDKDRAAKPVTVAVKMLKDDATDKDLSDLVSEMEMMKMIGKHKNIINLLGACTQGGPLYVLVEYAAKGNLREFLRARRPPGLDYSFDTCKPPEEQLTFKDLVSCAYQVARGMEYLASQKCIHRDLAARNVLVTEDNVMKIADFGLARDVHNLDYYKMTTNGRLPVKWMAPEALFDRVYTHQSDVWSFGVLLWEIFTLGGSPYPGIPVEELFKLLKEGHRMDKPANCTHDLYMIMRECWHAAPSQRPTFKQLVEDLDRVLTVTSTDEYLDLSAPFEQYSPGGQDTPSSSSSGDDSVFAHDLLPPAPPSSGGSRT
T2 sequence (P51617 whole entry): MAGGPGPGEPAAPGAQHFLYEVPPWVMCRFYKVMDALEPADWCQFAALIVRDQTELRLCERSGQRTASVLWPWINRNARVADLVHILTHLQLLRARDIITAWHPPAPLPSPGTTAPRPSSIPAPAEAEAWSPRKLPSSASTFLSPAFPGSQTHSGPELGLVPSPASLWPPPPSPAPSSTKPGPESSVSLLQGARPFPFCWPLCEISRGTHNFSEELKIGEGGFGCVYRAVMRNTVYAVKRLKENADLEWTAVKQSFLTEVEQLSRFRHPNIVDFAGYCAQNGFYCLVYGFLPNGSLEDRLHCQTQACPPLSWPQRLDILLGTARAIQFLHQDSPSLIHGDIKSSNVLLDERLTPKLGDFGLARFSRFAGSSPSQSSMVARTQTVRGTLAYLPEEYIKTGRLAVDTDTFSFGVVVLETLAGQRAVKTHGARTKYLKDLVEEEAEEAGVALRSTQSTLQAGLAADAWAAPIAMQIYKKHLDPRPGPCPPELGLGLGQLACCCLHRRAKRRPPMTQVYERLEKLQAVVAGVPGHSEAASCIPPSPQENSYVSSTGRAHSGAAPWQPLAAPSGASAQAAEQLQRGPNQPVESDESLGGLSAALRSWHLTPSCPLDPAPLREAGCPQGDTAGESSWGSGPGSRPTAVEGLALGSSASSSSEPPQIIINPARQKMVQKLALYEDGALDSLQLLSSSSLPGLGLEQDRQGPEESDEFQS
T10 sequence (P07949 29-1114 S904F): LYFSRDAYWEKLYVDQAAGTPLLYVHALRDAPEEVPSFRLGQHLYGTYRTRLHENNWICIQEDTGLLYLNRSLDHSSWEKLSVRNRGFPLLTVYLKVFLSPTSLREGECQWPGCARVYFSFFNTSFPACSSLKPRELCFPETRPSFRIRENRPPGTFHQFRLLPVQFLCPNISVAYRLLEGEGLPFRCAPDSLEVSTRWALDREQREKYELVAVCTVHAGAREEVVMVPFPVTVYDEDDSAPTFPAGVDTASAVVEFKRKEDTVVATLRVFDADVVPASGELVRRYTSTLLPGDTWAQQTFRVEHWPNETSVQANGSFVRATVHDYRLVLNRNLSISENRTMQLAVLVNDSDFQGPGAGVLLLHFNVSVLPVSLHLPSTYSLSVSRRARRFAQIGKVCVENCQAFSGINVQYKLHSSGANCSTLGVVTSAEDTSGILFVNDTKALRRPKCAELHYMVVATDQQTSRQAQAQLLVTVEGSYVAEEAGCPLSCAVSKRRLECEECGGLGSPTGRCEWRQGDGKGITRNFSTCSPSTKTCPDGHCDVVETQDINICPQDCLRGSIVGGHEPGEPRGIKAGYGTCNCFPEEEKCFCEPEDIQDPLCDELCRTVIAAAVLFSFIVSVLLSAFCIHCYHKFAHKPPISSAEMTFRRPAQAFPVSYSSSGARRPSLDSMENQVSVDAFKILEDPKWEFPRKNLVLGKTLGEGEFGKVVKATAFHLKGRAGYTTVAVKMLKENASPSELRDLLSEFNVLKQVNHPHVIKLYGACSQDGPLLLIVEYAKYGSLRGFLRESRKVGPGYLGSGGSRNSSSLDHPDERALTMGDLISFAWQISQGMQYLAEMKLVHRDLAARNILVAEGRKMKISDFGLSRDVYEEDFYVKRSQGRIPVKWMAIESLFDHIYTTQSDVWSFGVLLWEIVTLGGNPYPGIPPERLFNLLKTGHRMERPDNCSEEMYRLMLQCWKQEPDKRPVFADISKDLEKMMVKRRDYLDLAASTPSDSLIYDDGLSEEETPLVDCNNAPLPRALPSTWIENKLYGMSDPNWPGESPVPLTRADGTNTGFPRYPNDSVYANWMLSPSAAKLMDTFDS
T14 sequence (Q15120 whole entry): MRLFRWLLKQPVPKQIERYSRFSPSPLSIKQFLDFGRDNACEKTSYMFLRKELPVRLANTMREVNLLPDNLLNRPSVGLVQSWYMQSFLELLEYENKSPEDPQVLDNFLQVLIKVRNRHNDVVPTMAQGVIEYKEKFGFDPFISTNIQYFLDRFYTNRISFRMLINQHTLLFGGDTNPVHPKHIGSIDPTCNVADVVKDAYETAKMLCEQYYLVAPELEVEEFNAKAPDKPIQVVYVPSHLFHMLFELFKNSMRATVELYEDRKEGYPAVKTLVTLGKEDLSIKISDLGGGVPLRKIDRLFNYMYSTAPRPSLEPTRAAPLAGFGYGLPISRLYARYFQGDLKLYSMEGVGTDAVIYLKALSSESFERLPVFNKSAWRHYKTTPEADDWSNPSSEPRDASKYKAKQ
T3 sequence (Q02763 23-1124 Y897C): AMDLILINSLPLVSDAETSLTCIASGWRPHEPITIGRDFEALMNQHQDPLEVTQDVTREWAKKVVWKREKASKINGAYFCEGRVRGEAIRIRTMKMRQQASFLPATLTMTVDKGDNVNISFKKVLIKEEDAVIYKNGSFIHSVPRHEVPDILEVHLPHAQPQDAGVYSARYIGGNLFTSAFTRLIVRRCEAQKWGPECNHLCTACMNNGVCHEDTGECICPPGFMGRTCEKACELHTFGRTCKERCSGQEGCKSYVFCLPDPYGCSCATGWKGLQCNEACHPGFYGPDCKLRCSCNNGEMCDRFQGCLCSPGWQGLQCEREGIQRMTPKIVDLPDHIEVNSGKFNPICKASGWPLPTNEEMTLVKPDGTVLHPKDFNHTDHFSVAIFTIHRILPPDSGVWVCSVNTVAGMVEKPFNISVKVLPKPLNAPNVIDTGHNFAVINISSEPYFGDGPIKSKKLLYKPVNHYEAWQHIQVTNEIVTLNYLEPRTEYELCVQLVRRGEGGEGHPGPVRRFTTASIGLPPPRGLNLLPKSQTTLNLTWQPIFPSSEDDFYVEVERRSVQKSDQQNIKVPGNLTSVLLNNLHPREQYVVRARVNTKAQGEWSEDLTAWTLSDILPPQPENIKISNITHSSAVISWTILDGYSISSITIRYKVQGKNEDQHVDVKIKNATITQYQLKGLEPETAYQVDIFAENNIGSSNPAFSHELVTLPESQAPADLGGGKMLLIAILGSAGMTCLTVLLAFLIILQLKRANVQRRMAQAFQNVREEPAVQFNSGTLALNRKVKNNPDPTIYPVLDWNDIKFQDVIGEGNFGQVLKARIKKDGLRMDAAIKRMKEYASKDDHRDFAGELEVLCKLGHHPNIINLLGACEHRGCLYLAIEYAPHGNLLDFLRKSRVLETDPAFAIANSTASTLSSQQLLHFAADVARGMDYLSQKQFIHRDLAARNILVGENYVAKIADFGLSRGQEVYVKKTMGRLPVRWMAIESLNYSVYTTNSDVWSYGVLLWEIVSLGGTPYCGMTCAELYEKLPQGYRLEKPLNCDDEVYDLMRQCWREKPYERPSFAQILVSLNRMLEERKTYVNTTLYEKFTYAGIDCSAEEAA
T9 sequence (Q9BUB5 whole entry): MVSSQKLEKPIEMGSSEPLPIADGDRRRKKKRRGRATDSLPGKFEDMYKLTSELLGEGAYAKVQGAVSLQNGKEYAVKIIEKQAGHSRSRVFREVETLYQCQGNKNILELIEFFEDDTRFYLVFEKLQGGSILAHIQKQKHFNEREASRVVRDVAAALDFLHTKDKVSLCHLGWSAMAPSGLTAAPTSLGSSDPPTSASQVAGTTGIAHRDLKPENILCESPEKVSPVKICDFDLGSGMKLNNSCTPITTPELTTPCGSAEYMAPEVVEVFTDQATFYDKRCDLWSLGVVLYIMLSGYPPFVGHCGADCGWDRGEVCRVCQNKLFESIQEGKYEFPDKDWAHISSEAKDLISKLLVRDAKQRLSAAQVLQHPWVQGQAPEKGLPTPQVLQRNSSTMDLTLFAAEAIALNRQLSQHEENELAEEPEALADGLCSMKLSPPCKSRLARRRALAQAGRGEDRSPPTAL
T15 sequence (P27361 whole entry): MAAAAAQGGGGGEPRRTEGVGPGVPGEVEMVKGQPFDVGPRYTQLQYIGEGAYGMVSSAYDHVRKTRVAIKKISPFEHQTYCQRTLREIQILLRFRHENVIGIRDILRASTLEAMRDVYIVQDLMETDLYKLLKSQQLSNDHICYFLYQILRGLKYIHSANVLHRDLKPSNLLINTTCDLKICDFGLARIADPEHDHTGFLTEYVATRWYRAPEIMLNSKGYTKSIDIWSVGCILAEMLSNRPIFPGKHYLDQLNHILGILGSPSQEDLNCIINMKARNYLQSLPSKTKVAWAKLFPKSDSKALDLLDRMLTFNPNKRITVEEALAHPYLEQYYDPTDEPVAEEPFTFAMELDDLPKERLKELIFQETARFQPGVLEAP
T4 sequence (Q02763 23-1124 Y1108F): as the sequence (Q02763 23-1124 Y897C) above, with C875Y, Y1086F counted along it

For `CC(C)c1cc(-c2n[nH]c(=O)n2-c2ccc3c(ccn3C)c2)c(O)cc1O` [Ganetespib (STA9090)], the remaining activity at 10 µM on 382 unique human kinases [1] was found to be 97.3%; at 382 unique human kinases [2] it was 102%; on 382 unique human kinases [3], 88%; on 382 unique human kinases [4], 90%; on 382 unique human kinases [5], 73.6%; at 382 unique human kinases [6], 86.5%. The remaining activity at 10 µM on 382 unique human kinases [7] worked out at 92.1%; at 382 unique human kinases [8] it was 75.4%; at 382 unique human kinases [9] it was 79.3%; at 382 unique human kinases [10] it was 61.6%.

On to `CC(C)c1cc(-c2n[nH]c(=O)n2-c2ccc3c(ccn3C)c2)c(O)cc1O` [Ganetespib], for which the remaining activity at 10 µM came to 52.5% on 382 unique human kinases [11]; 10.2% at 382 unique human kinases [12] (setting [18]); 98.6% on 382 unique human kinases [13]; 22.3% on 382 unique human kinases [14]; 101% at 382 unique human kinases [15]; 100% at 382 unique human kinases [16]. Besides, the remaining activity at 10 µM on 382 unique human kinases [17] came out at 1.72%. Also, at 382 unique human kinases [12] (compound 1 uM, read-out: % Enzyme Activity (relative to DMSO controls)), the remaining activity at 1 µM came to 43.5%.

In the case of `CCNC(=O)c1noc(-c2cc(C(C)C)c(O)cc2O)c1-c1ccc(CN2CCOCC2)cc1` [Luminespib (AUY-922)], the “% Enzyme Activity (relative to DMSO controls)” value on 382 unique human kinases [1] came out at 74.72%; at 382 unique human kinases [2], 104.17%; on 382 unique human kinases [3] it was 99.30%; on 382 unique human kinases [4], 108.40%; on 382 unique human kinases [5], 95.48%; at 382 unique human kinases [6], 70.76%. The “% Enzyme Activity (relative to DMSO controls)” value at 382 unique human kinases [7] is 81.53%; at 382 unique human kinases [8] it was 98.29%; on 382 unique human kinases [9] it was 105.09%; on 382 unique human kinases [10], 101.49%. The remaining activity at 10 µM at 382 unique human kinases [1] stood at 76.4%; on 382 unique human kinases [2], 105%; on 382 unique human kinases [3], 100%; at 382 unique human kinases [4], 110%; at 382 unique human kinases [5], 95.8%; on 382 unique human kinases [6], 78.7%. The remaining activity at 10 µM at 382 unique human kinases [7] amounted to 83.2%; at 382 unique human kinases [8], 99.3%; on 382 unique human kinases [9] it was 106%; at 382 unique human kinases [10] it was 102%.

Consider `CCNC(=O)c1noc(-c2cc(C(C)C)c(O)cc2O)c1-c1ccc(CN2CCOCC2)cc1` [Luminespib], for which the “% Enzyme Activity (relative to DMSO controls)” value amounted to 105.75% on 382 unique human kinases [11]; 29.19% at 382 unique human kinases [12] (compound 10 uM); 108.63% on 382 unique human kinases [13]; 75.85% on 382 unique human kinases [14]; 95.87% on 382 unique human kinases [15]; 96.83% at 382 unique human kinases [16]. For the same molecule, at 382 unique human kinases [17], the “% Enzyme Activity (relative to DMSO controls)” value is 5.21%. For the same molecule, the remaining activity at 10 µM on 382 unique human kinases [11] came out at 108%; on 382 unique human kinases [12] (setting [18]) it was 30.1%; at 382 unique human kinases [13], 110%; on 382 unique human kinases [14], 76.8%; on 382 unique human kinases [15] it was 96.1%; at 382 unique human kinases [16], 98.6%. Also, the remaining activity at 10 µM at 382 unique human kinases [17] worked out at 5.53%.
